Data set [1] has as its system TGF-β1 mediated alpha-SMA expression in primary human bronchial fibroblasts derived from IPF patients. In words: Fibroblast to Myofibroblast Transformation (FMT) assay.
Experimental: To test the ability of compounds of the invention to inhibit the TGF-β1 dependent transition of fibroblasts to myofibroblasts in a relevant disease model of IPF, a study was carried out using an FMT assay employing lung fibroblasts from IPF patients. In this model the transition of fibroblasts to myofibroblasts is determined by the expression of the biomarker alpha smooth muscle actin (SMA).
Each drug concentration condition was evaluated in biological duplicates. One hour after compound addition, cells were stimulated with 1.25 ng/ml of TGF-01 and cultured for 72 hours thereafter. At the end of 72 hours cells were fixed using formaldehyde. The results were generated using high content imaging after staining cells using the nuclear stain DAPI as well as evaluation of the expression of alpha SMA. […] As a negative control 0.1% DMSO was used matching the DMSO concentration in treated wells.
Data set [2] relates to TGF-beta induced SMAD signaling. As to the kind of experiment: RDSR (RD SMAD reporter) Cellular Reporter Assay. The data set is classed as cell-based. The settings on record: Homo sapiens, 200 pg/ml rhTGF-beta1, 24 h. In short, it runs like this: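 Human rhabdomyosarcoma RD cells stably carrying an SBE-driven luc2P luciferase reporter. Inhibition of SMAD signaling was quantified from ONE-Glo luminescence.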
(A reporter such as luciferase makes a cellular process visible.)

How the values of data set [3] were obtained: Female, athymic nude mice (aged 6-8 weeks) were randomized to one of 12 study arms (n=3 per arm) (Table 16) and weighed prior to dosing. Mice were dosed via oral gavage either once daily (QD), or bi-daily (BID) for five days. […] The vehicle for PF-06952229 (PF) was 10% DMSO, 40% PEG300, 5% tween-80, 45% saline. For the vehicle alone group in this study, the PF-06952229 vehicle was used. At the end of each day for 10 days, mice were weighed, and symptoms of toxicity (if present) were recorded. A qualitative determination of overall toxicity was made based on the number and severity of symptoms for each cohort. The safety margin was determined at the end of day 10 based on the following equation: (maximum tolerated dose)/(minimum effective dose).

In data set [4] the test system is phospho-SMAD2 (Ser 465/467) in A549 xenograft. In words: A549 xenograft study, tumor phospho SMAD2. The settings on record: for phospho SMAD2 levels in tumor (normalized to GAPDH): 10, 50, 75, 100 mg/Kg; for inhibition at 10 mg/kg / inhibition at 50 mg/kg / inhibition at 75 mg/kg / inhibition at 100 mg/kg: Mus musculus, A549, oral gavage, 3 hours after administration, read-out: Percent of p-SMAD2 inhibition compared to vehicle control. It counts as in vivo, mouse. From the text: To test compounds for in vivo on-target activity (ALK5/TGF-βR1 inhibition), a study was completed using an A549 murine xenograft model. This model was utilized since an ALK5 inhibitor is expected to reduce the amount of the key TGF-β signaling molecule phosphoSMAD2 in the A549 xenograft cells. The TGF-β mediated phosphorylation in A549 cells takes place at amino acid residue four hundred and sixty-five and four hundred and sixty-seven (both are serine residues).
Eight-week old, female athymic nude mice (Charles River) were injected with approximately four million A549 cells (ATCC, CCL-185). The cells employed were harvested and resuspended in plain RPMI media (no phenol red added) and matrigel (Fisher Scientific) at a one to one ratio. Injection comprised a two-hundred microliter sample injected into the right hind flank of each mouse. Resulting tumors were measured every three days by caliper and as tumors reached an average of one hundred and thirty millimeters cubed, mice were randomized in groups of three.
All compounds were resuspended in 1-Methyl-2-pyrrolidinone (10%) plus 20% Solutol in water (90%). Galunisertib was included as a positive control and given at seventy-five milligram per kilogram to three mice. The drug suspensions were sonicated for fifteen minutes to generate a fine particle suspension before being administered to a subject. Mice were dosed (per oral gavage) at dose levels of one hundred mg/Kg, seventy-five mg/Kg, fifty mg/Kg and ten mg/Kg with three mice in each group. A vehicle control group with three mice was used to establish the baseline level of phospho SMAD2 in the tumor xenograft. Three hours after drug administration, tumors were harvested and stored at negative eighty degrees Celsius until further processing. The phospho SMAD2 levels were determined using the BioPlex Pro anti phospho-SMAD2 (Ser 465/467) beads from Biorad and this signal was normalized using GAPDH levels from each sample (Milliplex MAP GAPDH beads, Sigma/Millipore). Tumors were processed according to kit instructions and beads analyzed using the MagPix instrument by Luminex.

Another data set addresses ALK-5 (Homo sapiens (Human), UniProt P36897). As to the kind of experiment: LanthaScreen Eu Kinase Binding Assay, ALK-5. The following applies: for IC50: read-out: Kinase Inhibition: ALK5 IC50. A digest of the protocol: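 TR-FRET binding assay: compound displaces an ATP-site-directed Alexa Fluor tracer from kinase detected by Eu-labelled anti-tag antibody, lowering FRET. 10-point, 3-fold serial dilutions, 60 min incubation at room temperature, read without development step. Dose-response curves fitted.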
For orientation: TR-FRET usually uses a lanthanide donor and a delayed reading to cut background.

For data set [5] the following is noted: BID; in animal studies; cited from earlier work.
In another data set the test system is COV434 cells. In words: TGFβ induced proliferation, COV434. It counts as cell-based, human. The settings on record: TGFβ 1 ng/mL, 7 days, COV434 (FoxL2 wild-type). As to the method:
(§1) KGN and COV434 cells were seeded in triplicate in 96 well culture plates and incubated in the presence or absence of TGFβ (1 ng/mL) for 6 or 7 days, respectively. Proliferation was measured by Cell Titer Glo.

Another data set concerns KGN cells. As to the kind of experiment: TGFβ induced proliferation, KGN. The following applies: TGFβ 1 ng/mL, 6 days, KGN (FoxL2 mutant). The data set is classed as cell-based, human. Here is the method: as §1
Data set [6] relates to bleomycin-induced lung fibrosis. As to the kind of experiment: Bleomycin-induced lung fibrosis study. The data set is classed as in vivo, mouse. From the text:
Fibrosis, the formation of excess connective tissue causing stromal hardening and scar formation is a hallmark of cancer. Up to 20% of cancers are linked to chronic, inflammation-related fibrosis, including hepatocellular, gastric, esophageal, head and neck, colon, pancreatic, cervix, and vulvar cancers. The contribution of fibrosis for early cancer development remains unclear; however, in some advanced solid tumors it is believed that fibrotic tissues act like a barrier, preventing therapeutic agents like chemotherapy or biologics from penetrating the tumor tissue. Additionally, strong fibrotic tissue is thought to contribute to excluding immune cells from entering the tumor core, creating immune excluded or immune desert phenotypes. To evaluate the anti-fibrotic properties of Ex-11, a prophylactic model of bleomycin-induced lung fibrosis in male C57BL/6 mice was utilized, and various endpoints evaluated.
All mice in this study were 8-week-old male C57BL/6 mice purchased from Taconic. On Day −2 prior to bleomycin administration, all animals were weighed and distributed into groups with 10 mice each (Table 18) such that each group of animals contained animals of similar body weights.
On day 0, animals were treated with 1.5 U/kg bleomycin (Blenoxane catalog number NDC 61703-323-22, Hospira Pharmaceutical) intratracheally, except Group 1, which was administered normal saline via oropharyngeal route to serve as the healthy naïve control group. Prophylactic treatment was administered from one day prior to bleomycin administration to day 21 post bleomycin administration. On Day 21, only the morning dose was administered. Animals were harvested on day 21 and lung weights were measured. Body weights of all mice was recorded at least three times a week beginning on Day −2 and ending on the day of harvest, Day 21. Pirfenidone was used as positive control compound, as it is an FDA-approved drug for the treatment of idiopathic pulmonary fibrosis (IPF) in humans. All compounds were prepared in 10% Tween-20 in water; a homogenous suspension was formulated using a magnetic stir bar.
At the end of the study, total lung tissues were weighed and fixed for histological examination, which was conducted by a trained pathologist blinded to the treatment groups. Specifically, whole lungs from each mouse were paraffin-embedded in a single block. Two slides from each block were sectioned to the depth of the mainstem bronchi (near the center of each lobe) and stained with either hematoxylin and eosin (H&E) or Masson's trichrome (MT). Glass slides were evaluated using light microscopy by a board-certified veterinary pathologist. Lung sections were scored according to the methods described below, evaluating five randomly chosen fields in each tissue. Fixed lungs were sectioned, and consecutive tissue sections were stained with H&E or MT. Various pathological scoring parameters were used to determine the average Ashcroft score, as well as average inflammation and collagen deposition indicating fibrosis.
Parameter of scoring formalin fixed lung sections:
Modified Ashcroft Score: H&E-stained lung sections were scored according to the modified Ashcroft scale. Scores for five representative 200× microscopic fields per sample were averaged to obtain a mean score for each animal. […]

Where [7] appears, read: read-out: RD-SMAD reporter activity.

Where two headings read alike, the source gives them in different places.

We go through six compounds from patent publication US11746103B2, “ALK-5 inhibitors and uses thereof” (Sumitomo Pharma Oncology, Inc., priority 2020, dated 2023).

Chain of ALK-5 (P36897 34-503): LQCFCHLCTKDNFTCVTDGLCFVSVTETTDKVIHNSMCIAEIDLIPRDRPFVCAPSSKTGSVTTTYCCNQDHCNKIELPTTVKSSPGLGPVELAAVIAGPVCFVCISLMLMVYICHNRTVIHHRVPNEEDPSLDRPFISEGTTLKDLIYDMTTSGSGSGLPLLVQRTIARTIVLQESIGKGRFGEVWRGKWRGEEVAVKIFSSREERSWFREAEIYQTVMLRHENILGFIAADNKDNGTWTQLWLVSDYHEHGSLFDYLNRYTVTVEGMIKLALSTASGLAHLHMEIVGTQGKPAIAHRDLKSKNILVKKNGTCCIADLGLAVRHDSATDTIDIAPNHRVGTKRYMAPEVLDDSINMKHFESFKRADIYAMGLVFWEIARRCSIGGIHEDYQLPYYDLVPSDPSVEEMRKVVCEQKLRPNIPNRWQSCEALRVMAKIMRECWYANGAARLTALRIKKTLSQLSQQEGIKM

As for `Cc1cccc(-c2[nH]c(CNc3ccccc3F)nc2-c2ccc3ncnn3c2)n1` [Vactosertib, reference compound], the “LogM IC50 αSMA” value in data set [1] (donor IPF05) is given as −7.4 LogM; in data set [1] (donor IPF06), −7.0 LogM; in data set [1] (donor IPF08), −7.1 LogM. The “Max PIN (%)” value in data set [1] (donor IPF05) amounted to 32.7%; in data set [1] (donor IPF06), 112.1%; in data set [1] (donor IPF08), 104.0%. Besides, the IC50 in [2] (control compounds, read-out: RDSR reporter activity) was approximately 7.9 nM. In addition, in data set [3] (female, mouse, in vivo, 10 days), the “safety margin (maximum tolerated dose)/(minimum effective dose)” value is reported as 3.75-6 fold.

As to `Cc1cccc2c(Nc3ccnc(Nc4ccc(N5CCOCC5)c(Cl)c4)n3)cnnc12` [EX-12, N2-(3-chloro-4-morpholino-phenyl)-N4-(8-methyl-cinnolin-4-yl)-pyrimidine-2,4-diamine], in data set [4] (100 mg/Kg), the “observed level of p-SMAD2 as percent of vehicle-only group” value was found to be 45.5% and the inhibition at 100 mg/kg was 55.5%. In addition, in data set [4], the “phospho SMAD2 levels in tumor (normalized to GAPDH)” value is given as “reduced the phopho SMAD2 levels (p-SMAD2) in a dose dependent fashion”, the inhibition at 10 mg/kg was found to be 19.9%, the inhibition at 50 mg/kg was 35.8% and the inhibition at 75 mg/kg amounted to 40.1%. Also, in data set [2] (setting [7]), the IC50 is less than 100 nM. In addition, on ALK-5, the “Kinase Selectivity: ALK2 IC50/ ALK5 IC50” value is “(++) (10<ALK2/ALK5<100=[++])” and the IC50 is less than 10 nM.

With `CC(C)c1cnc(-c2cc(Cl)ccc2F)cc1Nc1ccncc1C(=O)NC(CO)CO` [PF-06952229], the minimum effective dose in data set [5] is given as 30 mg/kg. In data set [3] (BID), this compound had a tolerated dose of 50 mg/kg. In data set [3] (mouse, in vivo), the “dose at which mice experienced DLT” value is on record as not below 150 mg/kg and the “safety margin (maximum tolerated dose)/(minimum effective dose)” value was approximately 1.7 fold.

With “TGFβ: TGFβ cytokine used at 1 ng/mL to stimulate KGN and COV434 cells”, the results for the “proliferation (Cell Titer Glo)” value in the data set on COV434 cells and in the data set with KGN cells were “no change” and “significantly increased”, respectively.

As to `Cc1ccc(=O)n(-c2ccccc2)c1` [pirfenidone, reference compound], in [6] (100 mg/kg PO BID), the “animals lost during the study” value is “Only one animal in the pirfenidone group was lost”. Moreover, the total lung weight entry in [6] (day 21, vs bleomycin/vehicle) is “significant decrease in lung weight”. Moreover, in data set [6] (group 4, day 9, average), the “largest percent change in weight” value is reported as −1.2%.

As to `Cc1cccc2c(Nc3ccnc(Nc4ccc(N5CCOCC5)c(F)c4)n3)cnnc12` [EX-13, N2-(3-fluoro-4-morpholino-phenyl)-N4-(8-methylcinnolin-4-yl)-pyrimidine-2,4-diamine], in [4], the “phospho SMAD2 levels in tumor (normalized to GAPDH)” value is listed as “reduced the phopho SMAD2 levels (p-SMAD2) in a dose dependent fashion”, the inhibition at 10 mg/kg is 37.9%, the inhibition at 50 mg/kg amounted to 76.3% and the inhibition at 75 mg/kg is 76.8%. Also, the inhibition at 100 mg/kg in [4] (100 mg/Kg) came out at 75.7%. The IC50 in data set [2] (setting [7]) is less than 100 nM. At ALK-5, the “Kinase Selectivity: ALK2 IC50/ ALK5 IC50” value was “(++) (10<ALK2/ALK5<100=[++])” and the IC50 was less than 10 nM.

As usually defined, the inhibition is how much of the control response was suppressed.
